Platelet adhesion data for one molecule are collected here from patent US9987399B2, “Non-biodegradable stent comprising a biodegradable coating and method of coating the same” (Nanyang Technological University, priority 2007, dated 2018).

This experiment relates to platelets (platelet rich plasma). Briefly: In vitro thrombogenicity/platelet adhesion, dynamic method with I-125 labeled PRP. The experiment is classed as cell-based, Human. The settings on record: 10% loading in PLGA 80/20 coating on metal strips, 2 hours perfusion at 40 mL min^−1; FIG. 5. The method, then:
Metal strips with coatings of PLGA 80/20 containing varying amounts of triflusal (4, 7 and 10 wt %) were tested for thrombogenicity/platelet adhesion using a dynamic method. Human blood was collected and anti-coagulated. Platelet rich plasma (PRP) was then prepared from the blood, and labeled with radioactive iodine, I-125. The test samples were exposed to this labeled PRP for 2 hours under perfusion at a flow rate of 40 mL min^−1. Radioscintigraphy was then used on the washed and rinsed metal-coated strips, to count the number of adhered platelets.

The structures appear in SMILES notation.

As for `CC(=O)Oc1cc(C(F)(F)F)ccc1C(=O)O` [triflusal], the platelet adhesion entry is “effective at reducing platelet adhesion”.
